Consider 19 compounds from patent US20220257774A1, “AROMATIC AMINE AR AHD BET TARGETING PROTEIN DEGRADATION CHIMERA COMPOUND AND USE” (HINOVA PHARMACEUTICALS INC., priority 2019, published 2022).

Where two headings read alike, the source gives them in different places.

One assay has as its system LNCaP/AR cells. Description: Inhibition of the proliferation of LNCap/AR cells (CCK-8). It counts as cell-based. Conditions: read-out: LNCap/AR IC50. The method, boiled down:
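LNCaP/AR cells (1000/well, RPMI1640 + 10% FBS) were treated for 6 days at 37 °C with 9-point 3-fold dilutions from 10 μM final, 0.1% DMSO, in duplicate. Viability was read by CCK-8 absorbance at 450 nm after 1 h, and IC50 came from a dose-response-inhibition fit.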

The next assay relates to 22RV1 cells. As to the kind of experiment: Inhibition of the proliferation of drug-resistant prostate cancer cell 22RV1 (CCK-8). It counts as cell-based. The conditions noted are these: 22RV1 cells (enzalutamide-resistant), same method. The method, boiled down:
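22RV1 cells, 1000/well in RPMI1640 with 10% FBS, treated in duplicate with 9-point 3-fold dilutions from 10 μM (0.1% DMSO final). After 6 days at 37 °C, CCK-8 added for 1 h and OD450 read. IC50 from dose-response inhibition fit.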

Where [1] appears, read: 144 h, LNCaP/AR cells, 6 days culture, CCK-8.
Where [2] appears, read: LNCaP/AR cells, 6 days culture, CCK-8.

As to `Cc1ccc(-c2c(C)noc2C)cc1N(CCCCNc1cc2c(cc1F)C(=O)N(C1CCC(=O)NC1=O)C2)c1ccc(C#N)c(Cl)c1` (centres unmarked) [Compound 167, 2-Chloro-4-((5-(3,5-dimethylisoxazol-4-yl)-2-methylphenyl)(4-((2-(2,6-dioxopiperidin-3)-6-fluoro-1-isoindolinone-5-yl)amino)butyl)amino)benzonitrile], the IC50 in the assay with LNCaP/AR cells (LNCaP/AR, 144 h) was 501 to 2000 nM; with 22RV1 cells (Homo sapiens), above 2000 nM.

Consider `Cc1ccc(-c2c(C)noc2C)cc1N(c1ccc(C2(C#N)CC2)cc1)C1CC2(C1)CN(c1cc3c(cc1F)C(=O)N(C1CCC(=O)NC1=O)C3=O)C2` (centres unmarked) [Compound 170], for which the IC50 with LNCaP/AR cells (setting [1]) and with 22RV1 cells (Homo sapiens) was above 2000 nM each time.

For `Cc1ccc(-c2c(C)noc2C)cc1N(CCCNc1cc2c(cc1F)C(=O)N(C1CCC(=O)NC1=O)C2=O)c1ccc(C2(C#N)CC2)cc1` (centres unmarked) [Compound 171, 1-(4-((5-(3,5-Dimethylisoxazol-4-yl)-2-methylphenyl)(3-((2-(2,6-dioxopiperidin-3-yl)-6-fluoro-1,3-dioxoidindolin-5-yl)amino)propyl)amino)phenyl)cyclopropane-1-nitrile], the IC50 in the assay on LNCaP/AR cells (setting [2]) and in the assay with 22RV1 cells was above 2000 nM throughout.

Take `Cc1ccc(-c2c(C)noc2C)cc1N(CC(C)OC1CN(c2cc3c(cc2F)C(=O)N(C2CCC(=O)NC2=O)C3=O)C1)c1ccc(C2(C#N)CC2)cc1` (centres unmarked) [Compound 173, 1-(4-((5-(3,5-dimethylisoxazol-4-yl)-2-methylphenyl)(2-((1-(2-(2,6-dioxopiperidin-3-yl)-6-fluoro-1,3-dioxoisoindolin-5-yl)azacyclobutane-3-yl)oxy)propyl)amino)phenyl)cyclopropane-1-nitrile]: the values for the IC50 in the assay with LNCaP/AR cells (setting [1]) and in the assay with 22RV1 cells (Homo sapiens) were 501 to 2000 nM and 101 to 500 nM, respectively.

Regarding `Cc1ccc(-c2c(C)noc2C)cc1N(CCCNc1cc2c(cc1F)CN(C1CCC(=O)NC1=O)C2=O)c1ccc(C2(C#N)CC2)cc1` (centres unmarked) [Compound 175, 1-(4-((5-(3,5-dimethylisoxazol-4-yl)-2-methylphenyl)(3-((2-(2,6-dioxopiperidin-3-yl)-6-fluoro-3-oxoisoindolin-5-yl)amino)propyl)amino)phenyl)cyclopropane-1-nitrile], the IC50 in the assay on LNCaP/AR cells (setting [1]) was 501 to 2000 nM; with 22RV1 cells (Homo sapiens) it was above 2000 nM.

Turning to `Cc1ccc(-c2c(C)noc2C)cc1N(CCCNc1cc2c(cc1F)C(=O)N(C1CCC(=O)NC1=O)C2)c1ccc(C2(C#N)CC2)cc1` (centres unmarked) [Compound 176, 1-(4-((5-(3,5-dimethylisoxazol-4-yl)-2-methylphenyl)(3-((2-(2,6-dioxopiperidin-3-yl)-6-fluoro-1-oxoisoindolin-5-yl)amino)propyl)amino)phenyl)cyclopropane-1-nitrile], the IC50 is below 100 nM with LNCaP/AR cells (setting [1]) and above 2000 nM in the assay on 22RV1 cells (Homo sapiens).

For `Cc1ccc(-c2c(C)noc2C)cc1N(CC(C)OC1CN(c2cc3c(cc2F)CN(C2CCC(=O)NC2=O)C3=O)C1)c1ccc(C2(C#N)CC2)cc1` (centres unmarked) [Compound 177], the IC50 is below 100 nM in the assay with LNCaP/AR cells (setting [2]) and above 2000 nM with 22RV1 cells.

In the case of `Cc1ccc(-c2c(C)noc2C)cc1N(CC(C)OC1CN(c2ccc3c(c2)C(=O)N(C2CCC(=O)NC2=O)C3)C1)c1ccc(C2(C#N)CC2)cc1` (centres unmarked) [Compound 179, 1-(4-((5-(3,5-Dimethylisoxazol-4-yl)-2-methylphenyl)(2-((1-(2-(2,6-dioxopiperidin-3-yl)-3-oxoisoindolin-5-yl)azacyclobutane-3-yl)oxy)propyl)amino)phenyl)cyclopropane-1-nitrile], the IC50 in the assay with LNCaP/AR cells (setting [1]) and with 22RV1 cells (Homo sapiens) was above 2000 nM each time.

Take `Cc1ccc(-c2c(C)noc2C)cc1N(C[C@H]1C[C@@H]1CNc1cc2c(cc1F)C(=O)N(C1CCC(=O)NC1=O)C2=O)c1ccc(C2(C#N)CC2)cc1` (some centres unmarked) [Compound 181]: the IC50 in the assay with LNCaP/AR cells (setting [1]) is above 2000 nM; in the assay on 22RV1 cells (Homo sapiens), 101 to 500 nM.

Consider `Cc1ccc(-c2c(C)noc2C)cc1N(C[C@H]1C[C@@H]1CNc1ccc2c(c1)C(=O)N(C1CCC(=O)NC1=O)C2=O)c1ccc(C2(C#N)CC2)cc1` (some centres unmarked) [Compound 182], for which the IC50 in the assay on LNCaP/AR cells (setting [1]) was above 2000 nM; in the assay with 22RV1 cells (Homo sapiens), 101 to 500 nM.

Regarding `Cc1ccc(-c2c(C)noc2C)cc1N(C[C@H]1C[C@@H]1CNc1cc2c(cc1F)CN(C1CCC(=O)NC1=O)C2=O)c1ccc(C2(C#N)CC2)cc1` (some centres unmarked) [Compound 184], the IC50 in the assay on LNCaP/AR cells (setting [1]) and in the assay with 22RV1 cells (Homo sapiens) was above 2000 nM each time.

Take `Cc1ccc(-c2c(C)noc2C)cc1N(C[C@H]1C[C@@H]1CNc1cc2c(cc1F)C(=O)N(C1CCC(=O)NC1=O)C2)c1ccc(C2(C#N)CC2)cc1` (some centres unmarked) [Compound 185]: the IC50 in the assay with LNCaP/AR cells (setting [1]) and with 22RV1 cells (Homo sapiens) was above 2000 nM in each case.

`Cc1ccc(-c2c(C)noc2C)cc1N(C[C@H]1C[C@@H]1CNc1ccc2c(c1)C(=O)N(C1CCC(=O)NC1=O)C2)c1ccc(C2(C#N)CC2)cc1` (some centres unmarked) [Compound 186]: the IC50 in the assay with LNCaP/AR cells (setting [1]) and with 22RV1 cells (Homo sapiens) was above 2000 nM throughout.

For the compound `Cc1ccc(-c2c(C)noc2C)cc1N(C[C@H]1C[C@@H]1CNc1ccc2c(c1)CN(C1CCC(=O)NC1=O)C2=O)c1ccc(C2(C#N)CC2)cc1` (some centres unmarked) [Compound 187], the results for the IC50 in the assay with LNCaP/AR cells (setting [1]) and with 22RV1 cells (Homo sapiens) were above 2000 nM and 501 to 2000 nM, respectively.

With `Cc1ccc(-c2c(C)noc2C)cc1N(CC(C)OC1CCN(c2cc3c(cc2F)C(=O)N(C2CCC(=O)NC2=O)C3=O)CC1)c1ccc(C2(C#N)CC2)cc1` (centres unmarked) [Compound 188], the IC50 in the assay on LNCaP/AR cells (setting [1]) was 501 to 2000 nM; with 22RV1 cells (Homo sapiens), 101 to 500 nM.

In the case of `Cc1ccc(-c2c(C)noc2C)cc1N(CCC(C)CCNc1cc2c(cc1F)C(=O)N(C1CCC(=O)NC1=O)C2=O)c1ccc(C2(C#N)CC2)cc1` (centres unmarked) [Compound 189, 1-(4-((5-(3,5-dimethylisoxazol-4-yl)-2-methylphenyl)(5-((2-(2,6-dioxopiperidin-3-yl)-6-fluoro-1,3-dioxoisoindolin-5-yl)amino)-3-methylpentanyl)amino)phenyl)cyclopropane-1-carbonitrile], the IC50 in the assay with LNCaP/AR cells (setting [1]) is above 2000 nM; with 22RV1 cells (Homo sapiens), 501 to 2000 nM.

As for `Cc1ccc(-c2c(C)noc2C)cc1N(CCC(C)CCNc1cc2c(cc1F)CN(C1CCC(=O)NC1=O)C2=O)c1ccc(C2(C#N)CC2)cc1` (centres unmarked) [Compound 190, 1-(4-((5-(3,5-dimethylisoxazol-4-yl)-2-methylphenyl)(5-((2-(2,6-dioxopiperidin-3-yl)-6-fluoro-3-oxoisoindolin-5-yl)amino)-3-methylpentanyl)amino)phenyl)cyclopropane-1-carbonitrile], the IC50 in the assay with LNCaP/AR cells (setting [1]) and in the assay on 22RV1 cells (Homo sapiens) was above 2000 nM throughout.

With `Cc1ccc(-c2c(C)noc2C)cc1N(CCC(C)CCNc1cc2c(cc1F)C(=O)N(C1CCC(=O)NC1=O)C2)c1ccc(C2(C#N)CC2)cc1` (centres unmarked) [Compound 191, 1-(4-((5-(3,5-dimethylisoxazol-4-yl)-2-methylphenyl)(5-((2-(2,6-dioxopiperidin-3-yl)-6-fluoro-1-oxoisoindolin-5-yl)amino)-3-methylpentanyl)amino)phenyl)cyclopropane-1-carbonitrile], the IC50 with LNCaP/AR cells (setting [1]) was above 2000 nM; with 22RV1 cells (Homo sapiens), 501 to 2000 nM.

For `Cc1ccc(-c2c(C)noc2C)cc1N(CCC(C)CCNc1ccc2c(c1)C(=O)N(C1CCC(=O)NC1=O)C2=O)c1ccc(C2(C#N)CC2)cc1` (centres unmarked) [Compound 192, 1-(4-((5-(3,5-dimethylisoxazol-4-yl)-2-methylphenyl)(5-((2-(2,6-dioxopiperidin-3-yl)-1,3-dioxoisoindolin-5-yl)amino)-3-methylpentanyl)amino)phenyl)cyclopropane-1-carbonitrile], the IC50 in the assay with LNCaP/AR cells (setting [1]) was 501 to 2000 nM; in the assay with 22RV1 cells (Homo sapiens) it was below 100 nM.
